Laboratory results taken from publication PMC12216609, “Inhibitors of eIF1A-ribosome interaction unveil uORF-dependent regulation of translation initiation and antitumor and antiviral effects” (The EMBO Journal, 2025).
“And” between values parts separate entries of the source, which are not always exact repeats. Equal entries are not always repeated. Where two headings read alike, the source gives them in different places.

What was measured:
RPS10 = target: T1, RPS10 (Homo sapiens, UniProt P46783); format: binding
T1 construct: made in house; host or cells: E. coli BL-21

[1] = test system: cap-proximal AUG GFP reporter in HEK293T cells; format: cell-based; conditions: GFP WB densitometry; 20 µM overnight; dmso 0.965946
Excerpt: Translation from an AUG preceded by a very short 5'UTR (less than 30 nt) is usually inefficient and frequently bypassed, resulting in initiation from a downstream AUG, a phenomenon known as leaky scanning. […] To examine the impact of 1Ais on short 5'UTR initiation, we used a GFP reporter gene containing an AUG located 16 nt downstream from the 5' end followed by a second in-frame downstream AUG (Fig. 1F; Appendix Fig. S1B). Cells were transfected with this GFP reporter gene followed by exposure to DMSO (vehicle) and 1Ais. Initiations from upstream (US) or downstream (DS) AUGs were determined by western blot (WB) with anti-GFP antibodies and the ratio between the US and DS AUG was determined.
For the analysis of translation from very short 5'UTR and Leaky scanning, HEK293T cells were transfected with a GFP (20 ng/well) reporter gene driven by a cap-proximal and downstream AUGs (Elfakess et al, [2011]) together with a luciferase reporter gene (100 ng/well) as normalizing control and treated with 20 µM of 1Ais as described above. GFP levels were determined by Western blot (WB) (GFP antibody, Abcam #ab290) and quantified by densitometry (ImageJ) and normalized to the measured luciferase activity.
HEK293T cells were transfected with the GFP reporter gene schematically shown on the top. The first
AUG is […] from the 5’ end and the downstream AUG is in the same frame. Six hours after transfection, cells were treated with 1Ais. After overnight exposure to 1Ais, GFP expression was analyzed by WB using anti -GFP antibodies.
US/DS ratio was determined by densitometry and represents the long protein expression (upstream AUG, US) vs the […]
biological replicates. (C-D) Analysis of reporter genes mRNA levels after 1Ais treatment.

eIF1A without CTT = target: T2, eIF1A without CTT (Homo sapiens, UniProt P47813); format: binding; conditions: for fluorescence ratio, eIF1A Δ CTT: background-corrected, relative to DMSO or lowest 1Ai concentration, replicate columns
T2 construct: His-bdSUMO (cleaved yes); made in house; host or cells: E. coli (BL-21)

eIF1A without NTT = target: T3, eIF1A without NTT (Homo sapiens, UniProt P47813); experiment: Fluorescence binding assay with NTT-truncated eIF1A; conditions: for fluorescence ratio, eIF1A Δ NTT: background-corrected, relative to DMSO or lowest 1Ai concentration, replicate columns
T3 construct: His-bdSUMO (cleaved yes); made in house; host or cells: E. coli (BL-21)

[2] = test system: uORF-bearing 5'UTR firefly reporters in HEK293T cells; experiment: uORF reinitiation / leaky scanning firefly reporters; conditions: for ff/rl, 46 leaky reporter / ff/rl, 46 reporter / ff/rl, normal reporter: single replicates, not normalized to DMSO
Excerpt: (M) The reference and uORF-bearing reporters were transfected to HEK293T cells together with RL, which served to normalize translation efficiency. The reporter activities are represented as firefly vs RL; n ≥3 independent biological replicates, error bars represent SEM. *P < 0.05, **P < 0.01, Student t test. (N) Firefly Reporters (J) were transfected to HEK293T cells together with normalizing RL. […] Results are represented as firefly vs. RL normalized to DMSO in each biological replicate; n = 4, error bars represent SEM. *P < 0.05, **P < 0.01, Student t test.
In the first and second, we inserted an out-of-frame uAUG 46 or 95 nucleotides before the main ORF, respectively, followed by a downstream stop codon generating an uORF of 10 amino acids. In these constructs, the translation from the main ORF could be either by reinitiation or leaky scanning. In the third construct, this out of frame uAUG lacks a stop codon, causing initiation from the main ORF to exclusively occur via leaky scanning (Fig. 4L). These reporters were transfected into HEK293T cells together with RL luciferase reporter for normalizing transfection efficiency. […] We next examined these reporters in the presence of 1Ais.

[3] = read-out: IC50 (line under RPS10 binding data)
[4] = summary table, fluorescence binding assay, read-out: IC50 concentration (µM), RPS10

T2 sequence (P47813 1-114 limits assumed): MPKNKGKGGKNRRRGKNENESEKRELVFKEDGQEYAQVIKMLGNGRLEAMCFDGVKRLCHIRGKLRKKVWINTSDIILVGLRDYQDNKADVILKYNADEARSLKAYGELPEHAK
T3 sequence (P47813 31-144 limits assumed): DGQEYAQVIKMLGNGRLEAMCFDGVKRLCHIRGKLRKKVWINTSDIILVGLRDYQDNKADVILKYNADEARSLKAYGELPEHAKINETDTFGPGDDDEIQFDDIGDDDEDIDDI

COc1cccc(Nc2nc(-c3ccc(NC(C)=O)cc3)c(C)s2)c1 [1Ai-1869]
RPS10 fluorescence ratio to control (RPS10; 1Ai conc. 0.25 uM): 0.7198
RPS10 fluorescence ratio to control (RPS10; 1Ai conc. 0.5 uM): 0.6885
RPS10 fluorescence ratio to control (RPS10; 1Ai conc. 1 uM): 0.6476
RPS10 fluorescence ratio to control (RPS10; 1Ai conc. 2 uM): 0.5996
RPS10 fluorescence ratio to control (RPS10; 1Ai conc. 4 uM): 0.5488
RPS10 fluorescence ratio to control (RPS10; 1Ai conc. 8 uM): 0.4668
RPS10 fluorescence ratio to control (RPS10; 1Ai conc. 16 uM): 0.3725
RPS10 fluorescence ratio to control (RPS10; 1Ai conc. 32 uM): 0.2785
RPS10 fluorescence ratio to control (RPS10; 1Ai conc. 64 uM): 0.234
RPS10 fluorescence ratio to control (RPS10; 1Ai conc. 256 uM): 0.2345
IC50 (RPS10; [3]): 7.7 µM
IC50 (RPS10; read-out: RPS10 IC50): 7.7 µM
IC50 (RPS10; [4]): 7.7 µM
US/DS ratio, average [1]: 1.144
fluorescence ratio, eIF1A Δ CTT (eIF1A without CTT; 1Ai conc. 0.25 uM): 0.6232 and 0.681
fluorescence ratio, eIF1A Δ CTT (eIF1A without CTT; 1Ai conc. 0.5 uM): 0.6378 and 0.5984
fluorescence ratio, eIF1A Δ CTT (eIF1A without CTT; 1Ai conc. 1 uM): 0.6117 and 0.6127
fluorescence ratio, eIF1A Δ CTT (eIF1A without CTT; 1Ai conc. 2 uM): 0.4666 and 0.4698
fluorescence ratio, eIF1A Δ CTT (eIF1A without CTT; 1Ai conc. 4 uM): 0.4763 and 0.4603
fluorescence ratio, eIF1A Δ CTT (eIF1A without CTT; 1Ai conc. 8 uM): 0.4568 and 0.3937
fluorescence ratio, eIF1A Δ CTT (eIF1A without CTT; 1Ai conc. 16 uM): 0.3246 and 0.3079
fluorescence ratio, eIF1A Δ CTT (eIF1A without CTT; 1Ai conc. 32 uM): 0.1925 and 0.219
fluorescence ratio, eIF1A Δ CTT (eIF1A without CTT; 1Ai conc. 64 uM): 0.1778 and 0.2
fluorescence ratio, eIF1A Δ CTT (eIF1A without CTT; 1Ai conc. 256 uM): 0.2104 and 0.2095
IC50 (eIF1A without CTT; eIF1A Δ CTT, from the titration data, read-out: IC50 (eIF1A Δ CTT titration block)): 5.75 µM
IC50 (eIF1A without CTT; summary table, fluorescence binding assay, read-out: IC50 concentration (µM), CTT truncation): 5.7 µM
fluorescence ratio, eIF1A Δ NTT (eIF1A without NTT; 1Ai conc. 0.25 uM): 1
fluorescence ratio, eIF1A Δ NTT (eIF1A without NTT; 1Ai conc. 0.5 uM): 0.9867
fluorescence ratio, eIF1A Δ NTT (eIF1A without NTT; 1Ai conc. 1 uM): 1.085
fluorescence ratio, eIF1A Δ NTT (eIF1A without NTT; 1Ai conc. 2 uM): 0.9841
fluorescence ratio, eIF1A Δ NTT (eIF1A without NTT; 1Ai conc. 4 uM): 0.9947
fluorescence ratio, eIF1A Δ NTT (eIF1A without NTT; 1Ai conc. 8 uM): 0.9125
fluorescence ratio, eIF1A Δ NTT (eIF1A without NTT; 1Ai conc. 16 uM): 0.8674
fluorescence ratio, eIF1A Δ NTT (eIF1A without NTT; 1Ai conc. 32 uM): 0.7984
fluorescence ratio, eIF1A Δ NTT (eIF1A without NTT; 1Ai conc. 64 uM): 0.7082
fluorescence ratio, eIF1A Δ NTT (eIF1A without NTT; 1Ai conc. 256 uM): 0.6737
IC50 (eIF1A without NTT; eIF1A Δ NTT, from the titration data, read-out: IC50 (eIF1A Δ NTT titration block)): 21.3 µM
IC50 (eIF1A without NTT; summary table, fluorescence binding assay, read-out: IC50 concentration (µM), NTT truncation): 21.3 µM

COc1ccc(C=C2CSc3ccc(Cl)cc3C2=O)cc1O [1Ai-5175]
effect on uORF / leaky scanning reporters ([2]; 20uM (1Ai-5175 at 5uM), overnight): inhibit the short-distance reinitiation
normalized to DMSO, 46 leaky, average ([2]; 46 leaky reporter, average of biological repeats): 0.842
normalized to DMSO, 46 leaky, biological repeats ([2]; 46 leaky reporter, biological repeats 1-4): 0.696 and 0.690 and 0.975 and 1.007
normalized to DMSO, 46 leaky ([2]; 46 leaky reporter, single replicates 1-8 (two dates)): 0.670 and 0.722 and 0.651 and 0.728 and 1.015 and 0.935 and 0.924 and 1.090
normalized to DMSO, -46, average ([2]; -46 reporter, average of biological repeats): 0.583
normalized to DMSO, -46, biological repeats ([2]; -46 reporter, biological repeats 1-4): 0.455 and 0.565 and 0.613 and 0.698
normalized to DMSO, -46 ([2]; -46 reporter, single replicates 1-8 (two dates)): 0.448 and 0.461 and 0.490 and 0.641 and 0.602 and 0.625 and 0.452 and 0.944
ff/rl, 46 leaky reporter ([2]; experiment 12.3.24): 2.64E-02 and 2.84E-02 and 2.56E-02 and 2.87E-02
ff/rl, 46 reporter ([2]; experiment 12.3.24): 9.52E-02 and 9.80E-02 and 1.04E-01 and 1.36E-01
ff/rl, normal reporter ([2]; experiment 12.3.24): 3.34E-01 and 1.68E-01 and 2.05E-01 and 1.98E-01
ff/rl, 46 leaky reporter ([2]; experiment 13.03.24): 4.57E-03 and 4.21E-03 and 4.16E-03 and 4.91E-03
ff/rl, 46 reporter ([2]; experiment 13.03.24): 1.39E-02 and 1.45E-02 and 1.05E-02 and 2.19E-02
ff/rl, normal reporter ([2]; experiment 13.03.24): 4.32E-02 and 3.04E-02 and 3.07E-02 and 3.75E-02
reporter activity norm to DMSO, minus46 ([2]; minus46 reporter, 95nt from uORF to main ORF experiment, Figure 4N source data, replicate experiments, DMSO = 1): 0.1896 and 0.185
95nt from uORF to main ORF experiment, minus46, average (DMSO = 1) ([2]; minus46 reporter, average): 0.497
reporter activity norm to DMSO, minus 95 ([2]; minus 95 (nt) reporter, 95nt from uORF to main ORF experiment, Figure 4N source data, replicate experiments, DMSO = 1): 0.3264 and 0.388
95nt from uORF to main ORF experiment, minus 95nt, average (DMSO = 1) ([2]; minus 95nt reporter, average): 0.9478
reporter activity norm to DMSO, ref ([2]; ref reporter, 95nt from uORF to main ORF experiment, Figure 4N source data, replicate experiments, DMSO = 1): 0.381 and 0.3727
95nt from uORF to main ORF experiment, ref, average (DMSO = 1) ([2]; ref reporter, average): 0.3768
normalized to DMSO, refference, average ([2]; refference reporter, average of biological repeats): 0.842
normalized to DMSO, refference, biological repeats ([2]; refference reporter, biological repeats 1-4): 0.886 and 0.712 and 0.917 and 0.851
normalized to DMSO, refference ([2]; refference reporter, single replicates 1-8 (two dates)): 1.178 and 0.594 and 0.724 and 0.700 and 1.078 and 0.757 and 0.766 and 0.936
normalized to DMSO, single replicates ([2]; reporter 46, experiment 12.3.24): 4.48E-01 and 4.61E-01 and 4.90E-01 and 6.41E-01
normalize to DMSO, average ([2]; reporter 46, experiment 12.3.24, DMSO = 1): 0.51
normalized to DMSO, single replicates ([2]; reporter 46, experiment 13.3.24): 6.02E-01 and 6.25E-01 and 4.52E-01 and 9.44E-01
normalize to DMSO, average ([2]; reporter 46, experiment 13.3.24, DMSO = 1): 0.6556
normalize to DMSO, average ([2]; reporter 46 leaky, experiment 12.3.24, DMSO = 1): 0.6928
normalized to DMSO, single replicates ([2]; reporter 46 leaky, experiment 13.3.24): 1.01E+00 and 9.35E-01 and 9.24E-01 and 1.09E+00
normalize to DMSO, average ([2]; reporter 46 leaky, experiment 13.3.24, DMSO = 1): 0.991
normalized to DMSO, single replicates ([2]; reporter normal (refference), experiment 12.3.24): 1.18E+00 and 5.94E-01 and 7.24E-01 and 7.00E-01
normalized to DMSO, single replicates ([2]; reporter normal (refference), experiment 13.3.24): 1.08E+00 and 7.57E-01 and 7.66E-01 and 9.36E-01
normalize to DMSO, average ([2]; reporter refference, experiment 12.3.24, DMSO = 1): 0.7988
normalize to DMSO, average ([2]; reporter refference, experiment 13.3.24, DMSO = 1): 0.8842
inhibitory effect with extended (long) reinitiation distance ([2]; uORF to main ORF distance extended by 49 nt): lost
RPS10 fluorescence ratio to control (RPS10; 1Ai conc. 0.25 uM): 0.6015
RPS10 fluorescence ratio to control (RPS10; 1Ai conc. 0.5 uM): 0.7077
RPS10 fluorescence ratio to control (RPS10; 1Ai conc. 1 uM): 1.288
RPS10 fluorescence ratio to control (RPS10; 1Ai conc. 2 uM): 1.156
RPS10 fluorescence ratio to control (RPS10; 1Ai conc. 4 uM): 1.025
RPS10 fluorescence ratio to control (RPS10; 1Ai conc. 8 uM): 0.4718
RPS10 fluorescence ratio to control (RPS10; 1Ai conc. 16 uM): 0.1497
RPS10 fluorescence ratio to control (RPS10; 1Ai conc. 32 uM): 0.1533
RPS10 fluorescence ratio to control (RPS10; 1Ai conc. 64 uM): 0.2655
RPS10 fluorescence ratio to control (RPS10; 1Ai conc. 256 uM): 0.2335
IC50 (RPS10; [3]): 6.7 µM
IC50 (RPS10; read-out: RPS10 IC50): 6.7 µM
IC50 (RPS10; [4]): 6.7 µM
US/DS ratio, average [1]: 1.243
binding to NTT-truncated eIF1A (eIF1A without NTT): no binding
NTT truncation IC50 (eIF1A without NTT; eIF1A without NTT): No binding
IC50 concentration (µM), NTT truncation (eIF1A without NTT; summary table, fluorescence binding assay): No binding
